Assay results from patent US6861524B2, “Acyl and sulfonyl derivatives of 6,9-disubstituted 2-(trans-1,4-diaminocyclohexyl)-purines and their use as antiproliferative agents” (Aventis Pharmaceuticals Inc., priority 2000, dated 2005).
Counter-ions that a name gives are not always drawn. Like-named read-outs stand apart in the source and are kept apart here.

Key:
[1] = system: PC12 cells, or rat sympathetic neurons; conditions: Park et al. 1997, cited from earlier work; for concentration giving maximal protection from death: camptothecin-treated PC12 cells or rat sympathetic neurons; for cell death at day 6: camptothecin-treated neuronal cells
cortical neurons = conditions: Park et al. 1997; cited from earlier work
herpes simplex virus = conditions: Schang et al. 1998; cited from earlier work
SMC = conditions: in vitro and in vivo; Ruef et al. 1999; cited from earlier work
PC-3 = test: In vitro proliferation assay (MTT), PC-3; assay type: cell-based, human
Method: (§1) The proliferation of tumor cells can be measured using a tetrazolium salt-based assay known as the MTT (3-[4,5-Dimethylthiazol-2-yl]-2,5-diphenyltetrazolium bromide) assay. […] For the assay, the cell lines are plated onto 96 well plates at 1000 to 2500 cells/well (depending on the properties of the individual cell lines), left to attach and recover overnight. […] After 3 days, the cells are incubated with MTT dye (3-[4,5-Dimethylthiazol-2-yl]-2,5-diphenyltetrazolium bromide, Sigma #M5655, 10 mg/ml in Hank's Buffered Saline) to estimate the amount of live cells remaining vs. concentration for the test compounds. […] The MTT and culture medium is then removed from the cultures and 200 μl of DMSO is added to solubilize the dye from the cell layer. The absorbance at 570 nm is determined for each culture using a Spectramax plate reader (Molecular Devices).
(§2) IC50s were determined from the raw data from either the MTT or SRB assays.
(§3) All of the cell lines were obtained from American Type Tissue Collection, with the ATCC accession number in parentheticals. MCF-7 and MDA-MB-231 cells were grown in improved minimum essential medium (Biofluids) without phenol red, supplemented with 5% fetal bovine serum, 0.01 mg/ml gentamicin and 3 mM L-glutamine.

MDA-MB-435 = test: In vitro proliferation assay (MTT), MDA-MB-435; assay type: cell-based, human; conditions: mean (SD, n) where given, read-out: MB-435 Breast (IC50 μM)
Method: as §1, §2, §3

cdk1/cyclin B = cdk1/cyclin B (Homo sapiens, UniProt P06493); test: Cyclin-dependent kinase assay, cdk1/cyclin B (Histone H1 substrate)
Method: (§7) The IC50 values for cdk1/cyclin B, cdk2/cyclin E, and cdk4/cyclin D1 inhibition are determined using the following methods:
The cdk1 sequence (accession number Y00272) is amplified by PCR and cloned into the BamHI and SalI sites of pFASTBAC1 (Life Technologies).
The cyclin B1 sequence (accession number M25753) is amplified by PCR and cloned into the BamHI and SalI sites of pFASTBAC1 (Life Technologies).
(§8) The cDNA for each of the cyclin-dependent kinases (CDK) and the corresponding cyclins are cloned into the baculovirus expression vector, pFASTBAC1 (Life Technologies). The sequences of each of the constructs are confirmed by automated fluorescent DNA sequencing according to the manufacture's protocol (Perkin Elmer/Applied Biosystems Inc).
(§9) The insect cell (Sf9) expression is optimized for each of the CDK/cyclin pairs according to the manufacturer's protocols (Life Technologies).
(§10) The viruses are added to the cells and the culture is incubated at 27° C. for the desired time. The cells are harvested by centrifugation at 3000 rpm for 10 minutes. The cells are snap frozen on dry ice and stored at −80° C.
(§11) Cell extracts are made following a standard procedure. The cell pellet is resuspended in lysis buffer (50 mM HEPES, pH 8.0, 10 mM MgCl2, 1 mM DTT, 2.5 mM EGTA, 1 mM EDTA, 10 mM β-glycerophosphate, 1 mM sodium vanadate, 1 mM sodium fluoride, 1×Protease inhibitor cocktail). The cells are lysed using the microfluidizer (Microfluidics) for 20 minutes. Cell debris is removed by centrifugation at 100,000×g. The cell extracts are aliquoted in 1 ml aliquots, frozen on dry ice, and stored at −80° C.
The kinase reactions are performed following a standard procedure. The enzyme and inhibitor are diluted in kinase buffer (50 mM HEPES, pH 8.0, 10 mM MgCl2, 2.5 mM EGTA, 10 mM β-glycerophosphate, 1 mM sodium vanadate, 1 mM sodium fluoride, and 1 mM DTT) and pre-incubated for 30 minutes. […] The cdk1 enzyme activity is assayed using Histone H1 (Sigma) in the presence of 10 μM ATP for 30 min at room temperature. The reactions are terminated by the addition of 50 μL of 10 mM cold ATP to stop the reactions. The reactions are transferred to a pre-soaked 96-well multi-screen plate containing 30 μL of 100% TCA per well. After incubation for one hour at room temperature, the plates are washed twice with 200 μl of 20% TCA, followed by 200 μl of 10% TCA and finally with 200 μl of 5% TCA. After drying the plates at room temperature, the filter plates are placed in adapter plates (Packard) and 40 μl of Microscint-O® (Packard) is added to each well. Top Seal A film is used to cover the plates before counting in a Top Count Scintillation Counter.
The % remained activity of the indicated Cdk/cyclin kinase complex in the presence of inhibitor is calculated by the ratio of cpm in the presence of inhibitor to cpm in the absence of inhibitor (% Activity=vi/vo×100%).

cdk2/cyclin E = cdk2/cyclin E (Homo sapiens, UniProt P24941); test: Cyclin-dependent kinase assay, cdk2/cyclin E (GST-pRb substrate); conditions: read-out: CDK2 IC50; inhibition of cyclin E/CDK 2 enzyme activity
Method: as §7
The cdk2 sequence (accession number X62071) is amplified by PCR and cloned into the SpeI and XhoI sites of pFASTBAC1 (Life Technologies). […] This primer would anneal in the 3′ untranslated sequence.
The cyclin E sequence (accession number M73812) is amplified by PCR and cloned into the XbaI and XhoI sites of pFASTBAC1 (Life Technologies).
as §8, §9, §10, §11
The kinase reactions are performed following a standard procedure. […]
The transformed bacteria are grown overnight to saturation, then diluted in YT broth and incubated at 37° C. for 2 h. […] The beads are washed with kinase buffer and then quantitated of Coomassie blue-stained proteins separated by SDS-PAGE using a protein standard of known concentration.

cdk4/cyclin D1 = cdk4/cyclin D1 (Homo sapiens, UniProt P11802); test: Cyclin-dependent kinase assay, cdk4/cyclin D1 (GST-pRb substrate); assay type: biochemical; conditions: inhibition of cyclin D1/CDK 4 enzyme activity
[2] = Red blood cell binding (RBC to plasma ratio), mouse whole blood; assay type: in vitro ADME; conditions: 30 minutes at 37° C., nominal 500 ng/ml, hematocrit 0.41
Method: (§4) Compounds, including one positive control, are assessed for red blood cell (RBC) uptake, using a modified procedure based on the protocol reported in Sun, J. X. S., et al. High-performance liquid chromatographic analysis, plasma protein binding and red blood cell partitioning of phenprobamate. Biopharmaceutics and Drug Disposition, 8 (1987) 341-351.
(§5) Briefly, RBC uptake is evaluated by comparison of the levels in spiked plasma (n=3) and plasma isolated from spiked whole blood (n=3). Compounds are incubated with human and mouse whole blood, respectively, for 30 minutes at 37° C. using a nominal concentration of 500 ng/ml. Following centrifugation, the plasma is removed and submitted for analysis. Each compound is also spiked into blank plasma at a nominal concentration of 500 ng/ml, and submitted for analysis. Levels in the two plasma samples (Cp′ and Cp in the equation below) and the blood hematocrit are used to determine the red blood cell to plasma ratio (Crbc/Cp). [formula] In equation 1, Cp′ is the level of drug in the spiked “blank” plasma, Cp is the level of drug in the plasma of spiked whole blood, and H is the hematocrit. The hematocrit values are determined as 0.4 for human whole blood and 0.41 for mouse whole blood. The samples are analyzed with ESI LC/MS, using positive ion detection with an internal standard.
(§6) The red blood cell to plasma ratio is determined for each compound using equation 1. Tables 6 and 7 summarize the respective mean Crbc/Cp values and standard deviations for mouse and human whole blood, respectively, in descending order based on the red blood cell to plasma ratio, where “*” denotes Positive Control, and “ND” denotes Not Determined. MDL 108552 is included as a positive control for red blood cell uptake.

[3] = Red blood cell binding (RBC to plasma ratio), human whole blood; assay type: in vitro ADME; conditions: 30 minutes at 37° C., nominal 500 ng/ml
Method: as §4, §5, §6

[4] = Plasma pharmacokinetics in mice after single intravenous cassette doses; conditions: for Mean Conc. in plasma: mice
Method: Male mice are given single intravenous cassette doses of CDK inhibitor compounds.
A single intravenous cassette dose (18 or 15 mg/kg free base) is administered. For each compound, this is equivalent to a dose of approx. 3 mg/kg free base. […] The dose is administered at a volume of 10 ml/kg (total volume of approximately 0.25 ml/animal).
Male mice (Hsd:ICR (CD-1® SD®), Harlan), each weighing approximately 20-30 g at the start of the study. […] Water is available ad libitum throughout the study.
A single cassette dose of 5-6 compounds is administered by bolus injection into the tail vein over a 10-15-second period. […] Whole blood (approximately 0.6 ml/sample) is obtained by cardiac puncture and transferred to 3 ml glass tubes containing 45 U sodium heparin.
Sample Processing: Plasma: Whole blood is centrifuged at approximately 3,200 rpm for 10 min at approximately 5° C. and the plasma (approx. 0.3 ml/sample) is transferred to chilled plastic vials and stored at approx. −70° C. until bioanalysis.
Sample Analysis: Concentrations of each test article in plasma are quantitated by a non-validated method based on LC/MS using the following protocol.
Samples are removed from the freezer, allowed to thaw at room temperature, and vortexed to insure complete homogenization prior to sample manipulation. Samples are then prepared according to the following scheme: • 1. transfer 48 μL of plasma (blank mouse sample) into a 12×75 mm test tube. • 2. add 12 μL of working standard to the blank plasma for standard curve preparation. • 3. […] Inject 25 μL on LC/MS. Chromatographic Conditions:
Data Analysis: Concentrations of Compounds in plasma of individual animals are determined by bioanalytics. […] Statistical analyses are limited to simple expressions of variation (mean and standard deviation). The plasma AUC (area-under-curve) is determined by the linear trapezoidal rule. […] All PK parameters are determined by noncompartmental methods using WinNonlin version 3.0 (Pharsight Corp).
The following information is based on a graph of the semi-log of the plasma concentration in ng/ml versus collection time in hours. • “Cmax” represents the maximum plasma concentration. • “t1/2” represents the half-life of the compound. • “AUC0-∞” represents the calculated area under the curve. • “AUC % Extrap(obs.)” represents the extrapolated area under the curve. • “Cls” is the clearance rate.

HL-60 human leukemia = HL-60 human leukemia xenograft in nude mice; assay type: in vivo; conditions: Table 5; 1 mg/kg ip q1d 5x/wk; control 8341 ± 5355
Method: Antitumor efficacy is assessed using two subcutaneous human tumor xenograft models. The studies are performed using conventional assay techniques. Briefly, HL-60 (leukemia, 5×10^5 cells) and PC-3 (prostate, 5×10^6 cells) tumor cells are injected subcutaneously into nude mice (Cr1-CD1-Br-nu, Charles River Laboratory, Wilmington, Mass.). Dosing with compounds began when tumors reached 50 to 100 mm^3. The dose route/schedule for the test compounds is ip/q1d (5×/wk). The test doses are set based on the maximum tolerated dose (MTD). […] The test doses for the efficacy studies are set at ⅓rd the MTD (low dose) and the MTD (high dose). The results are shown in Tables 4 and 5 (HL-60, leukemia) (PC-3, prostate cancer). The length of the treatment phase is dependent on the tumor growth rate for the two models. This treatment phase is typically about 3 weeks for the HL-60 model and about 5 weeks for the PC-3 model. […] Dosing with flavopiridol is for the same time frame as for the experimental compounds in both xenograft models. Tumor volume (twice weekly) and body weights (once weekly) are monitored throughout the course of the treatment phase of the experiment. Tumor sizes are measured by external caliper measurements of protruding tumor. Volumes are calculated using the following formula: volume=½ (a×b2), where b is the smaller of two perpendicular diameters.

Sequence of cdk1/cyclin B (P06493 whole entry): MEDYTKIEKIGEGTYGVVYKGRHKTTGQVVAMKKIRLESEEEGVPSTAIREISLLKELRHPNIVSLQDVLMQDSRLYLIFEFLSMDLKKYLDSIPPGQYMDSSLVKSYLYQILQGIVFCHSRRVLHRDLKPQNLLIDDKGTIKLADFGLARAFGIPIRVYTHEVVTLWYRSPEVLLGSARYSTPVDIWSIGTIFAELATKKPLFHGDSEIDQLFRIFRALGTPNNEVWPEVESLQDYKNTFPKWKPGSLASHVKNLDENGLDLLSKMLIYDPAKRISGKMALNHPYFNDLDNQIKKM
Sequence of cdk1/cyclin B (P14635 whole entry partner): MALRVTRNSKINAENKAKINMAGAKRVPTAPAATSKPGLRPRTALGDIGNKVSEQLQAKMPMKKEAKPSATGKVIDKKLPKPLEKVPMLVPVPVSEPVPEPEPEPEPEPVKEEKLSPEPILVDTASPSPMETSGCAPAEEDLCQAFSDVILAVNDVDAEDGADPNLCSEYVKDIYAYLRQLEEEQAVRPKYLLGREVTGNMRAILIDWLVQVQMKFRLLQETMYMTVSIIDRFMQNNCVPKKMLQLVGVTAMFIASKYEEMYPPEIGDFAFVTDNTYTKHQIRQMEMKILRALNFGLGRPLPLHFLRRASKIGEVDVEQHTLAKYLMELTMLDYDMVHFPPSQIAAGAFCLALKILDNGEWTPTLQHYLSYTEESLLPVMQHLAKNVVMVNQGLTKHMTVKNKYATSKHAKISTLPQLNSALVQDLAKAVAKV
Sequence of cdk4/cyclin D1 (P11802 whole entry): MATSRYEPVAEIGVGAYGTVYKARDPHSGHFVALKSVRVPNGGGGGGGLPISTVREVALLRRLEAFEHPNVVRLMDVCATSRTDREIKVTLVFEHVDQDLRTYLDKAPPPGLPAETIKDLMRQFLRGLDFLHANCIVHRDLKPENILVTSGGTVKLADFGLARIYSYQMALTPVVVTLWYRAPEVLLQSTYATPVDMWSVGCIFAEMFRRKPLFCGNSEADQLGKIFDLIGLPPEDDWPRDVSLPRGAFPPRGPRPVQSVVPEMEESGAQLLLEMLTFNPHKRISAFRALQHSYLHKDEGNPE
Sequence of cdk4/cyclin D1 (P24385 whole entry partner): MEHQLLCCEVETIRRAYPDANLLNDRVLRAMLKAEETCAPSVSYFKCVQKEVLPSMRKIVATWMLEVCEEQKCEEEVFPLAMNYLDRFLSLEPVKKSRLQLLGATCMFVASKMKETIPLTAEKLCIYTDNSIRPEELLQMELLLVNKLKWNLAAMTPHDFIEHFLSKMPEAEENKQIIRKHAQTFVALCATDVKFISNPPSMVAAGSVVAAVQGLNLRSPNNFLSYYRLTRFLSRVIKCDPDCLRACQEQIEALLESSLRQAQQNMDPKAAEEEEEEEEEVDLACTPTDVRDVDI

Q: For `Cn1cnc2nc(NCCO)nc(NCc3ccccc3)c21` [iso-olomoucine], which “prevention of cell death of camptothecin-treated neuronal cells” value ([1]; PC12 cells / sympathetic neurons) is on record?
A: failed to prevent the cell death

Q: What about the “prevention of cell death of camptothecin-treated neuronal cells” value (cortical neurons) of the same molecule?
A: failed to prevent the cell death

Q: What does the source list for `Cn1cnc2c(NCc3ccccc3)nc(NCCO)nc21` [Olomoucine, 6-(benzylamino)-2-[(2-hydroxyethyl)amino]-9-methylpurine]?
A: concentration giving maximal protection from death [1]: 200 µM; cell death at day 6 [1]: approximately 30%; replication of herpes simplex virus (herpes simplex virus): inhibited the replication

Q: With `CN1CC[C@H](c2c(O)cc(O)c3c(=O)cc(-c4ccccc4Cl)oc23)[C@H](O)C1` [Flavopiridol] as the molecule, how does the “concentration giving maximal protection from death” value [1] read?
A: 1 µM

Q: What about the “cell death at day 6” value [1] of the same molecule?
A: approximately 30%

Q: And the SMC growth (SMC)?
A: inhibit SMC growth in vitro and in vivo

Q: For “trans-3-{4-[2-(4-Amino-cyclohexylamino)-9-cyclopentyl-9H-purin-6-ylamino]-piperidine-1-sulfonyl}-benzoic acid methyl ester dihydrochloride [Compound 135]”, which IC50 (PC-3; MTT assay, mean (SD, n) where given, read-out: PC-3 Prostate (IC50 μM)) is on record?
A: 4.05 µM

Q: What about the IC50 (MDA-MB-435) of the same molecule?
A: 3.38 µM

Q: And the IC50 (cdk1/cyclin B; read-out: CDK1 IC50, inhibition of cyclin B/CDK 1 enzyme activity)?
A: 80 nM

Q: What about the IC50 (cdk2/cyclin E) of the same molecule?
A: 4 nM

Q: What about the IC50 (cdk4/cyclin D1) of the same molecule?
A: 62 nM

Q: For `Cl.Cl.N[C@H]1CC[C@H](Nc2nc(NC3CCN(C(=O)Oc4ccc(F)cc4)CC3)c3ncn(C4CCCC4)c3n2)CC1` [Compound 87, trans-4-[2-(4-Amino-cyclohexylamino)-9-cyclopentyl-9H-purin-6-ylamino]-piperidine-1-carboxylic acid 4-fluoro-phenyl ester dihydrochloride], which IC50 (PC-3; Homo sapiens, PC-3, read-out: PC-3 Prostate (IC50 μM)) is on record?
A: 0.16 µM

Q: What about the “Mean Red Blood Cell to Plasma Ratio” value [2] of the same molecule?
A: 3.4

Q: And the “Mean Red Blood Cell to Plasma Ratio” value [3]?
A: 8.4

Q: And the “Mean Conc. in plasma” value ([4]; Cassette #3, single 15 mg/kg iv cassette dose (3 mg/kg/compound), 0.083 h)?
A: 1171.4 ± 153.4 ng/mL

Q: And the “Mean Conc. in plasma” value ([4]; Cassette #3, single 15 mg/kg iv cassette dose (3 mg/kg/compound), 0.25 h)?
A: 371.9 ± 35.9 ng/mL

Q: And the “Mean Conc. in plasma” value ([4]; Cassette #3, single 15 mg/kg iv cassette dose (3 mg/kg/compound), 0.5 h)?
A: 141.4 ± 9.5 ng/mL

Q: And the “Mean Conc. in plasma” value ([4]; Cassette #3, single 15 mg/kg iv cassette dose (3 mg/kg/compound), 1 h)?
A: 65.0 ± 14.0 ng/mL

Q: And the “Mean Conc. in plasma” value ([4]; Cassette #3, single 15 mg/kg iv cassette dose (3 mg/kg/compound), 3 h)?
A: 19.2 ± 6.0 ng/mL

Q: What about the “Mean Conc. in plasma” value ([4]; Cassette #3, single 15 mg/kg iv cassette dose (3 mg/kg/compound), 6 h) of the same molecule?
A: 4.3 ± 0.7 ng/mL

Q: What about the “Mean Conc. in plasma” value ([4]; Cassette #3, single 15 mg/kg iv cassette dose (3 mg/kg/compound), 8 h) of the same molecule?
A: 3.2 ± 1.6 ng/mL

Q: What about the “Mean Conc. in plasma” value ([4]; Cassette #3, single 15 mg/kg iv cassette dose (3 mg/kg/compound), 24 h) of the same molecule?
A: BLQ^a

Q: For `CC(C)=CC(=O)N1CCC(Nc2nc(N[C@H]3CC[C@H](N)CC3)nc3c2ncn3C2CCCC2)CC1` [Compound 30, trans 1-{4-[2-(4-Amino-cyclohexylamino)-9-cyclopentyl-9#H!-purin-6-ylamino]-piperidin-1-yl}-3-methyl-but-2-en-1-one dihydrochloride], which IC50 (cdk1/cyclin B) is on record?
A: 25 nM

Q: And the IC50 (cdk4/cyclin D1)?
A: 683 nM

Q: Which IC50 (cdk1/cyclin B) does the source give for `NC1CCC(Nc2nc(NC3CCN(C(=O)[C@@H]4C[C@H]4c4ccccc4)CC3)c3ncn(C4CCCC4)c3n2)CC1` (mixture of isomers) [Compound 43, (±)-trans-1-{4-[2-(4-Amino-cyclohexylamino)-9-cyclopentyl-9H-purin-6-ylamino]-piperidin-1-yl}-1-(2-phenyl-cyclopropyl)-methanone dihydrochloride] here?
A: 51 nM

Q: And the IC50 (cdk4/cyclin D1)?
A: 293 nM

Q: Which results are given for `Cc1ccc(OC(=O)N2CCC(Nc3nc(N[C@H]4CC[C@H](N)CC4)nc4c3ncn4C3CCCC3)CC2)cc1.Cl.Cl` [Compound 82, trans-4-[2-(4-Amino-cyclohexylamino)-9-cyclopentyl-9H-purin-6-ylamino]-piperidine-1-carboxylic acid p-tolyl ester dihydrochloride]?
A: Mean Red Blood Cell to Plasma Ratio [3]: 5.8; HL60 Mean Vol. ± SD (HL-60 human leukemia): 5164 ± 5516; Mean Conc. in plasma ([4]; Cassette #4, single 15 mg/kg iv cassette dose (3 mg/kg/compound), 0.083 h): 1458.0 ± 77.4 ng/mL; Mean Conc. in plasma ([4]; Cassette #4, single 15 mg/kg iv cassette dose (3 mg/kg/compound), 0.25 h): 875.3 ± 96.7 ng/mL; Mean Conc. in plasma ([4]; Cassette #4, single 15 mg/kg iv cassette dose (3 mg/kg/compound), 0.5 h): 369.6 ± 40.0 ng/mL; Mean Conc. in plasma ([4]; Cassette #4, single 15 mg/kg iv cassette dose (3 mg/kg/compound), 1 h): 133.7 ± 16.3 ng/mL; Mean Conc. in plasma ([4]; Cassette #4, single 15 mg/kg iv cassette dose (3 mg/kg/compound), 3 h): 37.5 ± 10.7 ng/mL; Mean Conc. in plasma ([4]; Cassette #4, single 15 mg/kg iv cassette dose (3 mg/kg/compound), 6 h): 14.5 ± 3.4 ng/mL; Mean Conc. in plasma ([4]; Cassette #4, single 15 mg/kg iv cassette dose (3 mg/kg/compound), 8 h): 12.3 ± 2.2 ng/mL; Mean Conc. in plasma ([4]; Cassette #4, single 15 mg/kg iv cassette dose (3 mg/kg/compound), 24 h): BLQ; Cls ([4]; mouse plasma, iv Cassette #4, 3 mg/kg/compound (15 mg/kg total dose)): 53.0 mL/min/kg
